US11690853B2, “Non-hormonal steroid modulators of NF-κβ for treatment of disease” (ReveraGen BioPharma, Inc., priority 2015, dated 2023)
“Also recorded” adds a separate entry of the source.

What was measured:
[1] = test system: mdx mice; assay: mdx mouse model: histological evaluation of gastrocnemius muscle (H&E); assay type: in vivo; conditions: H&E staining; 3 months treatment; comparison to untreated and prednisolone treated mdx mice
Experimental: (§1) Separate groups (n=12-14) of mdx mice were treated with prednisolone (5 mg/kg/day; per oral in feed), Example 1 (20 and 40 mg/kg/day; per oral in feed) and Example 2 (20 and 40 mg/kg/day; per oral in feed) for 3 months. All mice underwent 30 min biweekly treadmill exercise during the treatment duration to unmask the mild disease phenotype of mdx mouse model.
Hematoxylin and Eosin staining of gastrocnemius muscle of untreated mdx mice show significant degeneration and inflammation.

[2] = test system: mdx mice; assay: mdx mouse model of dystrophy: body weight; assay type: in vivo; conditions: prednisolone 5 mg/kg/day per oral in feed; 33.8 weeks age; P<0.05
Experimental: as §1

[3] = test system: mdx mice; assay: mdx mouse model: in vitro force contractions of EDL muscle; assay type: in vivo; conditions: prednisolone 5 mg/kg/day; P<0.05
Experimental: as §1
The distal tendon of the extensor digitorum longus (EDL) muscle was tied securely to the lever arm of a servomotor/force transducer (model 305B, Aurora Scientific, Richmond Hill, ON, Canada) and the proximal tendon to a tissue clamp. Muscles were stimulated between two platinum electrodes. […] With the muscle held at Lo using stimulation frequencies of 30, 50, 80, 100, 120 and 150 Hz, the maximum isometric tetanic force (Po) developed during a 300 ms train of stimulation pulses was recorded for the EDL muscle. The muscle length was then measured with calipers and after removal of the muscle from the bath the mass of the muscle was determined. For each muscle, the optimum fiber length (Lf) was calculated by multiplying Lo by a previously determined Lf/Lo ratio of 0.45. Total muscle fiber cross-sectional area was determined by dividing the wet mass by the product of Lf and the density of mammalian skeletal muscle (1.06 mg/mm^3). […]

[4] = test system: DBA/1 mice; assay: Collagen antibody induced arthritis (CAIA) model; assay type: in vivo, mouse; set-up: Mean clinical severity score, Day 7 / Mean clinical severity score, Day 9 / Mean clinical severity score, Day 11 / Mean clinical severity score, Day 14: scale not given here; conditions: for Mean clinical severity score, Day 7 / Mean clinical severity score, Day 9 / Mean clinical severity score, Day 11 / Mean clinical severity score, Day 14: oral, day 0 through day 14; for Mean clinical severity score, Day 7 / Mean clinical severity score, Day 9 / Mean clinical severity score, Day 11 / Mean clinical severity score, Day 14 / Reduction as compared with vehicle-treated mice, Day 7 / Reduction as compared with vehicle-treated mice, Day 9 / Reduction as compared with vehicle-treated mice, Day 11 / Reduction as compared with vehicle-treated mice, Day 14: prednisone 5 mg/kg, Example 7 20 mg/kg
Experimental: On day 1, DBA/1 mice (Jackson Labs, Bar Harbor, Me.) received an intraperitoneal (i.p.) injection of 2 mg of monoclonal antibody cocktail specific for collagen (CII) (MD Biosciences, St. Paul, Minn.). Two days later (day 3), mice received an i.p. injection of 100 μg of lipopolysaccharide (LPS). Mean clinical severity of CAIA was determined using a macroscopic clinical severity scoring system every 2-3 days by three individuals until the end of the experiment (day 14 post antibody cocktail injection). The scoring criteria was performed as follows:
For intervention studies, mice (n=10) received an oral dose of 20 mg/kg of the compound of Example 7 suspended in cherry syrup (30 μl total volume) on day 0 through day 14. Additional groups of mice (n=10) received 5 mg/kg of prednisone in cherry syrup as a positive control, or cherry syrup alone as a negative control. On day 14, animals were sacrificed via CO2 exposure. Statistical analysis was performed using a two-way ANOVA followed by a Bonferroni post-hoc test.

[5] = test system: C57BL/6 mice; assay: Mouse carrageenan-induced paw edema model; assay type: in vivo; conditions: Example 7 10, 20, 40 mg/kg in cherry syrup; 5 hours after carrageenan
Experimental: Female C57BL/6 mice (n=5 per group) were administered prednisone (5 mg/kg) and the compound of Example 7 (10, 20, 40 mg/kg) in cherry syrup. 24 hours later, drugs and vehicle control (syrup) were administered again. 2 hours later, mice were anesthetized, paw thickness was measured with a caliper to obtain a baseline value, and 1% carrageenan was injected subcutaneously in the subplantar region of the right hind paw. Mice were sacrificed 5 hours later and paw edema was measured via caliper. Change in thickness was calculated by subtracting baseline value from post-carrageenan injection value. Statistical analysis was performed using a Student's T-test.

[6] = test system: OVA-primed mice; assay: OVA-induced mouse model of acute allergic asthma; assay type: in vivo; conditions: 20 mg/kg oral on days 6-11
Experimental: The model used in the current studies has been previously described (Gwinn et al. 2006; Balsley et al. 2010). Briefly, mice were primed via intraperitoneal (i.p) injection with 50 μg of OVA in PBS with 100 μl of alum (200 μl total volume per mouse) on day 0. OVA-primed mice were challenged under light anesthesia (isoflurane) by intranasal delivery of 100 μg of OVA in PBS on days 7-10. Mice were sacrificed via CO2 exposure on day 12 for analysis.
For in vivo intervention studies, mice (n=5) received an oral dose of 20 mg/kg of the compound of Example 7 suspended in cherry syrup (30 μl total volume) on days 6-11. Additional groups of mice (n=5) received 5 mg/kg of prednisone in cherry syrup as a positive control, or cherry syrup alone as a negative control. Following sacrifice on day 12, leukocytes were collected from the airways via bronchoalveolar lavage (BAL). For this procedure, a cannula was inserted into the trachea and two 1 ml washes of cold PBS were infused in and out of the airways. […]
BAL and lung tissue cells were treated with ammonium chloride lysis buffer to remove red blood cells. The remaining leukocytes were then counted and stained for FACS analysis with a combination of PE-Cy5-anti-mouse CD4 and FITC-anti-mouse CD62L to identify effector/memory CD4+ cells (CD4+/CD62L−). […]

[7] = test system: knockout-transgenic sickle cell mice; assay: Mouse model of sickle cell disease; assay type: in vivo; conditions: 30 mg/kg, 6 weeks
Experimental: Example 7 was tested in a mouse model of sickle cell disease, knockout-transgenic sickle cell mice were used which have been previously described in Meiler S E et al. 2001.
Female knockout-transgenic sickle mice (aged 6-8 weeks), were treated for 6 weeks with Example 7, (30 mg/kg) (n=5), or a vehicle control (cherry syrup) (n=5). At the end of the 6 week treatment, hematologic parameters were measured and tissues were harvested. Additionally, nociception evaluation was performed before and after treatment by assessing sensitivity to hot and cold pain as previously described in Le Bars D. et al. 2001.

[8] = test system: DBA mdx mice; assay: Heart function in mdx mice (echocardiography); assay type: in vivo, mouse; conditions: 15 and 30 mg/kg/day oral syrup, 8 weeks
Description: To test the compound of Example 7 and its relationship to heart function, 4 groups of mdx mice (n=10, per group) and 1 group of wild type mice (n=10, per group) were studied. The groups were as indicated as such in Table 2.
The method of administration was a daily oral syrup an the treatment period was eight (8) weeks. The age at the start of the first dose was 6-7 weeks. Echocardiography was used to assess ejection fraction and fraction shortening following drug treatment.

[9] = test system: J:NU mice injected with BSG mouse CSPG4+/+ cells; assay: Mouse model of diffuse intrinsic pontine glioma; assay type: in vivo
Experimental: A murine model of brainstem glioma developed in Dr. Javad Nazarian's laboratory at Children's National Medical Center was used for testing VBP15 efficacy in vivo. BSG mouse CSPG4+/+ cells were expanded in culture to form neurospheres and were subsequently injected into brainstems of 2-day old (P2) J:NU mice. Dexamethasone (Dex) (2.5 mg/kg body weight), Example 7 (30 mg/kg body weight) and cherry syrup (control) were orally administered daily for […] starting on postnatal day 11. In another study, mice were treated daily with Dexamethasone (Dex) (2.5 mg/kg), Example 7 (30 mg/kg) or cherry syrup from post-natal days 10-46.

[10] = test system: Female beagle dogs; assay: Corpora lutea in female dogs, 39-week treatment; assay type: in vivo, dog; conditions: at ≥2 mg/kg/day, dose-dependent increases in incidence; doses of 2, 10, or 50 mg/kg for 39 weeks
Experimental: Female beagle dogs were treated with Example 7 for 39 weeks at doses of 2, 10, or 50 mg/kg. This experiment was performed at MPI (report #1998-014). Ovaries were examined by a trained pathologist.

SMILES: C[C@]12C=CC(=O)C=C1CCC1C2=CC[C@@]2(C)C1CC[C@]2(O)C(=O)CO (stereo partly drawn) [Example 2, (10S,13S,17R)-17-hydroxy-17-(2-hydroxyacetyl)-10,13-dimethyl-6,7,8,10,12,13,14,15,16,17-decahydro-3H-cyclopenta[a]phenanthren-3-one]
- Histology of skeletal muscle: inflammation, degeneration, regenerating fibers [1]: significant decrease in inflammation, degeneration, and increase in regenerating muscle fibers

SMILES: C[C@]12C=CC(=O)C=C1CC[C@@H]1[C@@H]2[C@@H](O)C[C@@]2(C)[C@H]1CC[C@]2(O)C(=O)CO [Prednisolone]
- Body weight versus untreated mice [2]: significantly lower body weight
- Specific force of EDL muscle, difference to untreated group [3]: no statistically significant (P<0.05) difference
- Histology of skeletal muscle: inflammation, degeneration, regenerating fibers [1]: appeared to increase degeneration and decrease in regeneration

SMILES: C[C@]12C=CC(=O)C=C1CC[C@@H]1[C@@H]2C(=O)C[C@@]2(C)[C@H]1CC[C@]2(O)C(=O)CO [Prednisone, reference compound]
- Mean clinical severity score, Day 7 [4]: 2.4 ± 0.68
- Mean clinical severity score, Day 9 [4]: 1.5 ± 0.27
- Mean clinical severity score, Day 11 [4]: 2.9 ± 0.39
- Mean clinical severity score, Day 14 [4]: 0.7 ± 0.3
- Reduction as compared with vehicle-treated mice, Day 7 [4]: 69.8%
- Reduction as compared with vehicle-treated mice, Day 9 [4]: 69.8%
- Reduction as compared with vehicle-treated mice, Day 11 [4]: 69.1%
- Reduction as compared with vehicle-treated mice, Day 14 [4]: 88.7%

SMILES: C[C@@H]1CC2C3CCC4=CC(=O)C=C[C@]4(C)C3=CC[C@]2(C)[C@@]1(O)C(=O)CO (stereo partly drawn) [Example 7, (10S,13S,16R,17R)-17-hydroxy-17-(2-hydroxyacetyl)-10,13,16-trimethyl-6,7,8,10,12,13,14,15,16,17-decahydro-3H-cyclopenta[a]phenanthren-3-one]
- Paw edema induced by carrageenan (change in paw thickness) [5]: effective at reducing mouse paw edema
- Collagen antibody induced arthritis, overall effect ([4]; 20 mg/kg oral): effective at reducing collagen antibody induced arthritis
- Mean clinical severity score, Day 7 [4]: 4.5 ± 0.95
- Mean clinical severity score, Day 9 [4]: 5.0 ± 0.77
- Mean clinical severity score, Day 11 [4]: 5.6 ± 0.82
- Mean clinical severity score, Day 14 [4]: 3.1 ± 0.69
- Reduction as compared with vehicle-treated mice, Day 7 [4]: 43.8%
- Reduction as compared with vehicle-treated mice, Day 9 [4]: 35.5%
- Reduction as compared with vehicle-treated mice, Day 11 [4]: 41.3%
- Reduction as compared with vehicle-treated mice, Day 14 [4]: 50%
- Acute allergic lung inflammation: leukocyte infiltration (eosinophils and CD4+ T cells) and mucus production [6]: effective at improving parameters of acute allergic lung inflammation
- Platelet count [7]: decreases; also recorded: reduces platelet count
- Sensitivity to cold pain [7]: strikingly decreases sensitivity to cold pain; also recorded: reduces sensitivity to cold pain
- Sensitivity to heat pain [7]: significantly decreases sensitivity to heat pain; also recorded: reduces sensitivity to heat pain
- Spleen size [7]: decreased spleen size; also recorded: reduces spleen size
- White blood cell count [7]: decreases white blood cell count; also recorded: reduces white blood cell count
- Ejection fraction [8]: improved ejection fraction
- Fraction shortening [8]: improved fraction shortening
- Increase in survival relative to mice treated with dexamethasone or control mice ([9]; 30 mg/kg daily from post-natal days 10-46): 19%
- Brain edema ([9]; 30 mg/kg oral daily for 14 weeks starting on postnatal day 11): significant decrease in brain edema
- Corpora lutea in the ovaries [10]: absent bilaterally

SMILES: C[C@]12CCC(=O)C=C1CCC1C2=CC[C@@]2(C)C1CC[C@]2(O)C(=O)CO (stereo partly drawn) [Example 1, (10S,13S,17R)-17-hydroxy-17-(2-hydroxyacetyl)-10,13-dimethyl-6,7,8,10,12,13,14,15,16,17-decahydro-1H-cyclopenta[a]phenanthren-3(2H)-one]
- Histology of skeletal muscle: inflammation, degeneration, regenerating fibers [1]: significant decrease in inflammation, degeneration, and increase in regenerating muscle fibers
